Laboratory results: publication PMC12136037, “Type II kinase inhibitors that target Parkinson’s disease–associated LRRK2” (Science Advances, 2025)

Experiments:
Assay in all cases: DSF 100 kinase selectivity screen;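 note: compound tested at 20 µM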
Type in all cases: binding
[1] = biological target: T1, ~100 representative kinases (Homo sapiens, UniProt Q9UPE1); settings: Protein SRPK3; DSF; average of three replicates
T1 construct: Recombinant protein kinase domains with a concentration of 2 μM
How it was run: (§1)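 Each kinase domain, at 2 μM, is mixed with 20 μM test compound and SYPRO Orange in Hepes (20 mM, pH 7.5) with 500 mM NaCl. Temperature is then raised at 3°C/min and fluorescence-monitored unfolding yields the melting temperature change, ΔTm in degrees Celsius.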

[2] = biological target: T2, ~100 representative kinases (Homo sapiens, UniProt Q14680); settings: protein MELK; average of three replicates
T2 construct: Recombinant protein kinase domains with a concentration of 2 μM
T2 sequence (Q14680 whole entry, the tested form may be a part): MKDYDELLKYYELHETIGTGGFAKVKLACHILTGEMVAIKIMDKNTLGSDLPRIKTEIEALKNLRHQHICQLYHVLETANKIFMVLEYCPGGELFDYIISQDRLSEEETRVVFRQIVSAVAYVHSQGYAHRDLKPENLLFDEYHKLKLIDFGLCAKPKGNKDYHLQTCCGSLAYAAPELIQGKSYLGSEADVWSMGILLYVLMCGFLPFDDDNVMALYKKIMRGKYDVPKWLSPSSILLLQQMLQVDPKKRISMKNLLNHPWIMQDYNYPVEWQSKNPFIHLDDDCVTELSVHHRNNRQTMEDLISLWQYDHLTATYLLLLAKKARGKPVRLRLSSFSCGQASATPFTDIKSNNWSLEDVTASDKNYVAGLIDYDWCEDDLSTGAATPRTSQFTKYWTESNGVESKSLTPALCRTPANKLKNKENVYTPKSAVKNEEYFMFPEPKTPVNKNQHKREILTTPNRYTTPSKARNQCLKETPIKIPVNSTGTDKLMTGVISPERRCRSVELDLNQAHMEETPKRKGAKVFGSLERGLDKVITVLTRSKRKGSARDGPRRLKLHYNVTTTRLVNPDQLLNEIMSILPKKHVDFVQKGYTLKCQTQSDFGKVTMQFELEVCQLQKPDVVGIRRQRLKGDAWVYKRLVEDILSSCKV
How it was run: as §1

[3] = biological target: T3, ~100 representative kinases (Homo sapiens, UniProt P48730); settings: Protein CSNK1D; average of three replicates
T3 construct: Recombinant protein kinase domains with a concentration of 2 μM
T3 sequence (P48730 whole entry, the tested form may be a part): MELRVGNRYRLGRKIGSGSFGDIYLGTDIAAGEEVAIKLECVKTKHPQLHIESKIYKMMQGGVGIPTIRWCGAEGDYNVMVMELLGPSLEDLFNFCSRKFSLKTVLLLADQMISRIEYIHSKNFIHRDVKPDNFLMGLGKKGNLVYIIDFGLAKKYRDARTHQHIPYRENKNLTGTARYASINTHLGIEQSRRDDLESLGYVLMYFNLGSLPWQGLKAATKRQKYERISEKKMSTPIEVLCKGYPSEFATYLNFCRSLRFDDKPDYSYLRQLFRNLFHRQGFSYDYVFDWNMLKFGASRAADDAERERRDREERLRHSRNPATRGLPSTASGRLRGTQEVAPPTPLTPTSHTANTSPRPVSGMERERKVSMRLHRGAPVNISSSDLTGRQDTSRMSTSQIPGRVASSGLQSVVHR
How it was run: as §1

[4] = biological target: T4, ~100 representative kinases (Homo sapiens, UniProt Q8IU85); settings: Protein CAMK1D; average of three replicates
T4 construct: Recombinant protein kinase domains with a concentration of 2 μM
T4 sequence (Q8IU85 whole entry, the tested form may be a part): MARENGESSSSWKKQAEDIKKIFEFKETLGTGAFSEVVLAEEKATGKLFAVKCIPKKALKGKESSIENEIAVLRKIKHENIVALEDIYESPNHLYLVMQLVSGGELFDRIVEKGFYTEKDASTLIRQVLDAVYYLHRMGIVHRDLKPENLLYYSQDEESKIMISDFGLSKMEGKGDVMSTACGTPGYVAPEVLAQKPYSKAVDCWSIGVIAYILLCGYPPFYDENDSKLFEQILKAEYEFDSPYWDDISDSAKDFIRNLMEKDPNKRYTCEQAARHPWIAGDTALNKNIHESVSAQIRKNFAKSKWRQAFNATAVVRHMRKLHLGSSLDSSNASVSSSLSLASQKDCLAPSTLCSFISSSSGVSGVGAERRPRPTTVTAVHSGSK
How it was run: as §1

[5] = biological target: T5, ~100 representative kinases (Homo sapiens, UniProt Q2M2I8); settings: Protein AAK1; average of three replicates
T5 construct: Recombinant protein kinase domains with a concentration of 2 μM
T5 sequence (Q2M2I8 whole entry, the tested form may be a part): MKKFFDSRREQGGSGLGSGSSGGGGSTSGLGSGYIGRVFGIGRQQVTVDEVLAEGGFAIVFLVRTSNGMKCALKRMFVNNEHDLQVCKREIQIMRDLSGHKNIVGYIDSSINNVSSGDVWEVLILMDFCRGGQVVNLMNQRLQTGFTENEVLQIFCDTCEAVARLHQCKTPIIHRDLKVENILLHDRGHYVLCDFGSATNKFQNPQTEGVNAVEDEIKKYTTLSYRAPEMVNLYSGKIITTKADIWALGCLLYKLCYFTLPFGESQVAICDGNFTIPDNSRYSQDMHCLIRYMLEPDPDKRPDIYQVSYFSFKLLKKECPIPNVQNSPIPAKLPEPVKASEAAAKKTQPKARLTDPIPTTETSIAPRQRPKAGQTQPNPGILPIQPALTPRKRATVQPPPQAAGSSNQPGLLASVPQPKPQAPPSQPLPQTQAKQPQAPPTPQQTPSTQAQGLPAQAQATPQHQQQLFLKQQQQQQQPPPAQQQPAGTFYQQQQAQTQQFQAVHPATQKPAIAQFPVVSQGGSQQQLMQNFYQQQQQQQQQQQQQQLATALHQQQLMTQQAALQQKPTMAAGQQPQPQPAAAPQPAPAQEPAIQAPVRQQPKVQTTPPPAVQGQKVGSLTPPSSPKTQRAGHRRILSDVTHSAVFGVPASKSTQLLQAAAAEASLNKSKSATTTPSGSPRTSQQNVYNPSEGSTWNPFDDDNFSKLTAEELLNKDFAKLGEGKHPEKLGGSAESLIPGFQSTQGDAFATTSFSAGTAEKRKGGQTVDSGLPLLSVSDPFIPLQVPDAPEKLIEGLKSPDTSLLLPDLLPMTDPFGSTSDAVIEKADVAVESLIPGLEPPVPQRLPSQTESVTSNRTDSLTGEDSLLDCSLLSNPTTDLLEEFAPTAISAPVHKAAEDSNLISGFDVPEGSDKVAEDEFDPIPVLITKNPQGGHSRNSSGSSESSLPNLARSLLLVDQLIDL
How it was run: as §1

[6] = biological target: T6, ~100 representative kinases (Homo sapiens, UniProt P45983); settings: protein MAPK8; average of three replicates
T6 construct: Recombinant protein kinase domains with a concentration of 2 μM
T6 sequence (P45983 whole entry, the tested form may be a part): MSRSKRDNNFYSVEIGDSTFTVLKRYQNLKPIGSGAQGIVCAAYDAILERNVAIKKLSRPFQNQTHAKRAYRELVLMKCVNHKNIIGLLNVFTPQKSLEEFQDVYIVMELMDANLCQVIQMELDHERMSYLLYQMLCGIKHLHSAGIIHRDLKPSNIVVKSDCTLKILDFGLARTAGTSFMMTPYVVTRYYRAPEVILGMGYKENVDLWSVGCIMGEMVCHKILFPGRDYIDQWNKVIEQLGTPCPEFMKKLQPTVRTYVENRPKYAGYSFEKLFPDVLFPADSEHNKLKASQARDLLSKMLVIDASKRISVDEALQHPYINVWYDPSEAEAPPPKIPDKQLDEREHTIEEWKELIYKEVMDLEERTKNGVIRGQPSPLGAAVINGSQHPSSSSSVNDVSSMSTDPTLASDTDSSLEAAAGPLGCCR
How it was run: as §1

[7] = biological target: T7, ~100 representative kinases (Homo sapiens, UniProt Q13873); settings: Protein BMPR2; average of three replicates
T7 construct: Recombinant protein kinase domains with a concentration of 2 μM
T7 sequence (Q13873 27-1038): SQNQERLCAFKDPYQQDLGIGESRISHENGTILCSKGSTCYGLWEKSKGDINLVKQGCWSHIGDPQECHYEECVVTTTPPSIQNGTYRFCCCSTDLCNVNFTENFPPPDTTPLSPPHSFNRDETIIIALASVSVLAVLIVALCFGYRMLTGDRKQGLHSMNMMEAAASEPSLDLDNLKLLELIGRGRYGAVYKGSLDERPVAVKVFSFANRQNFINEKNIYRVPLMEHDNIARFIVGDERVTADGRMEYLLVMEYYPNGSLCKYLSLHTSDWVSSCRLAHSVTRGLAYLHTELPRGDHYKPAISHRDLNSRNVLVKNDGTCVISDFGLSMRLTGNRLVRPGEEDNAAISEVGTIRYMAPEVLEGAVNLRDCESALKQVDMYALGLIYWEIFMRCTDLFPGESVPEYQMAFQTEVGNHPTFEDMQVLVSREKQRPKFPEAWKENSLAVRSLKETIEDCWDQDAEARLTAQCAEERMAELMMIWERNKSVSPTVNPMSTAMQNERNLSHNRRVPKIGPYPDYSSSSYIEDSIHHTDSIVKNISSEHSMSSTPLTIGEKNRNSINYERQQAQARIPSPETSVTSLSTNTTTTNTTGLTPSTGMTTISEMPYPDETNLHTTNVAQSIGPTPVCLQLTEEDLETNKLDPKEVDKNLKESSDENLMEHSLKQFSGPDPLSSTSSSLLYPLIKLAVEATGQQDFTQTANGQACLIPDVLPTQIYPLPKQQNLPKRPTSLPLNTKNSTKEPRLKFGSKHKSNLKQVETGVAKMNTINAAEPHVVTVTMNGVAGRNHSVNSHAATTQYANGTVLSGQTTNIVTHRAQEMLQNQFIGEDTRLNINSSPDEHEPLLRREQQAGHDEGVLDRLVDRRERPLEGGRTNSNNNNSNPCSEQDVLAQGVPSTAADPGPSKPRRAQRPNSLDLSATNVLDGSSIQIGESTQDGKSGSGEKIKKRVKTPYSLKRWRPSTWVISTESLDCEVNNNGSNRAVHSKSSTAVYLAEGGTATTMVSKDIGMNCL
How it was run: as §1

[8] = biological target: T8, ~100 representative kinases (Homo sapiens, UniProt O14976); settings: protein GAK; average of three replicates
T8 construct: Recombinant protein kinase domains with a concentration of 2 μM
T8 sequence (O14976 1-1311): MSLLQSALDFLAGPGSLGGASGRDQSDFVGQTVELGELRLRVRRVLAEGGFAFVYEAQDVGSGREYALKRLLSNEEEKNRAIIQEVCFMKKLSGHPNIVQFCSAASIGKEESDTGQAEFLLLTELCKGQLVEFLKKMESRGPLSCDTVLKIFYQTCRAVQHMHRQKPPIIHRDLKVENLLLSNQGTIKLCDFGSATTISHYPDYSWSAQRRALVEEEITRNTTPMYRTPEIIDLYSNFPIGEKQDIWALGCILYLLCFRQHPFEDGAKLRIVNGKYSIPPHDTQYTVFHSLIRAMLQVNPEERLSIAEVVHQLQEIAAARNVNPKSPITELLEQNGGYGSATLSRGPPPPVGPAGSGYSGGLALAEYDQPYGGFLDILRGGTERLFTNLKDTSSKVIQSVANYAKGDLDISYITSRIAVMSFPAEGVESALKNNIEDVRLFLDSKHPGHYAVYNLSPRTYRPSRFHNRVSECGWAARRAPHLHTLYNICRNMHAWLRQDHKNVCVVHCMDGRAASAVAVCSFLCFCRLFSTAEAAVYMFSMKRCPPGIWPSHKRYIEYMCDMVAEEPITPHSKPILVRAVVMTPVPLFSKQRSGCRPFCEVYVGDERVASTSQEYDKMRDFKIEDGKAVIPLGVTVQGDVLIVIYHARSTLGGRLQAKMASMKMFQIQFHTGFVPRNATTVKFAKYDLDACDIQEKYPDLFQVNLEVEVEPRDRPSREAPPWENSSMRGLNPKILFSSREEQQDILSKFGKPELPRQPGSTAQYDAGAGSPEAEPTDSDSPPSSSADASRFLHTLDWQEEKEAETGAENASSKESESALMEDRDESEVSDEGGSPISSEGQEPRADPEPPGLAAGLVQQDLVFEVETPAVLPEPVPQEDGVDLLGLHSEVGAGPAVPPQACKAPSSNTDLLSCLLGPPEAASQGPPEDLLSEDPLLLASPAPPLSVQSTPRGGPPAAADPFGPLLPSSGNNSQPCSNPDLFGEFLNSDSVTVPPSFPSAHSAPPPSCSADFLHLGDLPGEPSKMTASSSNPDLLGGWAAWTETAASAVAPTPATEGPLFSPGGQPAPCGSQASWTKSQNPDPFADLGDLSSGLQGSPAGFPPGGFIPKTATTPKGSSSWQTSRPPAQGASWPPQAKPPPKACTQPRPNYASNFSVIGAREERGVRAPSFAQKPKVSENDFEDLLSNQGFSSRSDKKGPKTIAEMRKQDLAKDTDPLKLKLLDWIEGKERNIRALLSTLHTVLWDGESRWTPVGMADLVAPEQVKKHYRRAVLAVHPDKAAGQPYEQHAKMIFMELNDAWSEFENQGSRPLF
How it was run: as §1

T1 sequence (Q9UPE1 whole entry, the tested form may be a part): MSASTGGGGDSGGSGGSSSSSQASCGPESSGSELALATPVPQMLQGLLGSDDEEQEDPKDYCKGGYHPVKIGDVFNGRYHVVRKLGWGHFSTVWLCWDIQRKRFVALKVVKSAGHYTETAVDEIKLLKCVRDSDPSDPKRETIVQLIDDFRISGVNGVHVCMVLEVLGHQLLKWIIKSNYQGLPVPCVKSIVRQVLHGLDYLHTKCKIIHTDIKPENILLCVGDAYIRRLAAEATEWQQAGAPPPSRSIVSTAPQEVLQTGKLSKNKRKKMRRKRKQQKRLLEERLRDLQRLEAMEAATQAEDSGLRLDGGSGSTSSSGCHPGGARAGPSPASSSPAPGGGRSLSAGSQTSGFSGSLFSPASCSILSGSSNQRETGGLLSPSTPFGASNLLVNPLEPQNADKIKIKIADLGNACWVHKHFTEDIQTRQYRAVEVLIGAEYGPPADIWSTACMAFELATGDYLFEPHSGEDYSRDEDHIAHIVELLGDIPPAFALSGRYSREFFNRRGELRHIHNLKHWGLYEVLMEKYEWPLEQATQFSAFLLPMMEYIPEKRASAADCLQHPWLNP

## Cc1ccc(-n2nc(C(C)(C)C)cc2NC(=O)Nc2cccc(-c3c[nH]c4nc(Cl)nc(N5CCOCC5)c34)c2)cc1 [Compound 30]
[1]
  dTm: 3.14 K
[2]
  dTm: 2.91 K
[3]
  dTm: -2.91 K
[4]
  dTm: -0.23 K
[5]
  dTm: 0.53 K
[6]
  dTm: 1.42 K
[7]
  dTm: 0.19 K
[8]
  dTm: -1.53 K

## O=C(Nc1cccc(-c2c[nH]c3ncnc(N4CCOCC4)c23)c1)C1(C(=O)Nc2ccc(F)c(F)c2)CC1 [Compound 17]
[1]
  dTm: 5.74 K
[2]
  dTm: 14.46 K
[3]
  dTm: 2.63 K
[4]
  dTm: -0.44 K
[5]
  dTm: 3.45 K
[6]
  dTm: 2.52 K
[7]
  dTm: 0.95 K
[8]
  dTm: 1.14 K

## CC(C)(C)c1cc(NC(=O)Nc2cccc(-c3c[nH]c4ncnc(N5CCOCC5)c34)c2)n(-c2ccc3ncccc3c2)n1 [Compound 28]
[1]
  dTm: 9.26 K
[2]
  dTm: 2.71 K
[3]
  dTm: 1.22 K
[4]
  dTm: 2.13 K
[5]
  dTm: 6.38 K
[6]
  dTm: 3.58 K
[7]
  dTm: 0.69 K
[8]
  dTm: 7.34 K

## COc1cc(C(=O)N2CCOCC2)c(F)cc1Nc1nc(N(C)C)c2c(Cl)c[nH]c2n1 [Compound 36]
[1]
  dTm: 1.84 K
[2]
  dTm: 1.11 K
[3]
  dTm: 4.03 K
[4]
  dTm: 1.95 K
[5]
  dTm: 2.52 K
[6]
  dTm: 5.54 K
[7]
  dTm: 0.63 K
[8]
  dTm: 6.68 K
